According to patent US7935726B1, “Tricyclic pyrones” (Kansas State University Research Foundation, priority 1999, dated 2011):
Like-named read-outs stand apart in the source and are kept apart here. One block for each compound: values may come before it.

Assays:
MC65 cells = test: protection from APP C99-induced cell death in MC65 cells; type: cell-based; settings: for EC50: MC65 cells in the absence of tetracycline
Source text: The reported procedures for the inhibitory activities of ACAT (Tomoda, H.; Nishida, H.; Masuma, R.; Cao, J.; Okuda, S.; Omura, S. J. Antibiot. 1991, 44, 136-143), CETP (Tomoda, H.; Tabata, N.; Masuma, R.; Si, S.-Y.; Omura, S. J. Antibiot. 1998, 51, 618-623; D. H. Hua et al. Tetrahedron 2003, 59, 4795-4803), L1210 tumor cells (Perchellet, E. M.; Ladesich, J. B.; Magill, M. J.; Chen, Y.; Hua, D. H.; Perchellet, J. P. Anti-Cancer Drugs 1999, 10, 489-504), and APP C99-induced cell death (Jin, L.-W.; Hua, D. H.; Shie, F.-S.; Maezawa, I.; Sopher, B.; Martin, G. M. J. Mol. Neurosci. 2002, 19, 57-61) were followed. […]

L1210 tumor cells = test: cytotoxicity to L1210 tumor cells; type: cell-based
Source text: (§1) The reported procedures for the inhibitory activities of ACAT (Tomoda, H.; Nishida, H.; Masuma, R.; Cao, J.; Okuda, S.; Omura, S. J. Antibiot. 1991, 44, 136-143), CETP (Tomoda, H.; Tabata, N.; Masuma, R.; Si, S.-Y.; Omura, S. J. Antibiot. 1998, 51, 618-623; D. H. Hua et al. Tetrahedron 2003, 59, 4795-4803), L1210 tumor cells (Perchellet, E. M.; Ladesich, J. B.; Magill, M. J.; Chen, Y.; Hua, D. H.; Perchellet, J. P. Anti-Cancer Drugs 1999, 10, 489-504), and APP C99-induced cell death (Jin, L.-W.; Hua, D. H.; Shie, F.-S.; Maezawa, I.; Sopher, B.; Martin, G. M. J. Mol. Neurosci. 2002, 19, 57-61) were followed.

PKC-γ [1] = test: canine study: PKC-γ level of dog lens (Western blot); type: in vivo, Beagle dogs
Experimental: (§2) A pilot study was conducted to determine initial toxicity and efficacy in a Beagle model. The study was conducted at the fully accredited facility at the Kansas State University Veterinary Clinic. The dogs were fed a 40% galactose diet for 6 weeks. These dogs developed cataracts. Compound 1 was administered orally at 100 mg/kg body weight/day for 6 weeks. At this dose, the polyol levels were 50% normalized (FIG. 4) and PKCγ levels were 80% normalized (FIG. 5). […] The PkC-γ levels of dogs treated with galactose is 30.8%, G+I is 84.1% and C+I is 79.7%. Additional testing at higher doses is planned to determine optimal dose for efficacy with no or low toxicity. These experiments are well within the skill and experience of one of ordinary skill in the art and can be performed without undue experimentation.

[2] = canine study: polyol level in dog lens (GC/MS); type: in vivo, Beagle dogs
Experimental: as §2

[3] = test system: N/N 1003 lens epithelial cells; test: tissue culture assay: galactitol formation from galactose in lens epithelial cells (GC/MS); type: cell-based; settings: for inhibition at 10 µM: 10 uM inhibitor, 40 mM galactose media, lens epithelial cells, number of trials in parenthesis
Experimental: The activity of the drugs is tested in various ways, including tissue culture assays and assays testing aldose reductase inhibition. For the tissue culture assay, a lens epithelial cell line is grown in galactose with or without the drug. Cells are tested for polyol accumulation by GC/mass spectrometry. Levels of PKC are tested in homogenized cell pellets or in samples of lens, retina or sciatic nerves from treated patients. Tissue is homogenized and tested for PKCγ levels using Western blots. These procedures are described in more detail below.
The ability of the drugs to inhibit galactitol formation from galactose was also studied in N/N 1003 lens epithelial cells. Two sets of lens cells were grown in media with […] 40 mM galactose. Various concentrations of inhibitors were added initially and the cells were grown for 48 hours. The cells were lysed and galactose and galactitol were extracted out and the concentrations were determined using gas chromatography and mass spectrometry by silylating the crude extract with excess of trimethylsilyl chloride, trimethylsilyl imidazole and pyridine at 70° C. for 1 h.
40 mM galactose media was supplemented with 10 uM inhibitor and fed to lens epithelial cells for 48 hours.

PKC-γ [4] = test: galactose-fed rats: PKC-γ levels in lens and sciatic nerve (Western blot); type: in vivo, Sprague Dawley Rats; settings: high galactose feed, 100 mg/Kg body weight per day, FIG. 3B
Experimental: In order to test for in vivo effects of ARI's, rats were fed a 40% galactose diet for 9 days and the accumulation of galactitol was measured in lens tissue. This tissue has high aldose reductase activity and the eye has a separate vasculature. Thus, if the ARI works in the lens this is a good indication that the drug works and can penetrate to most tissues.
The specific experimental details follow. […] The rats were given food supplemented with inhibitor in the morning and then given food and water ad libitum the rest of the day. They were kept on a 12-hour on and 12-hour off light cycle. After 9 days, the rats were sacrificed with an overdose of CO2 and then eyes were taken and immediately frozen on dry ice for later polyol and PKC analyses. Experiments on all rats conformed to the ARVO resolution on the Use of Animals in Research.
The lenses were removed from the enucleated eyes and weighed. They were put in 200 μL lysis buffer (50 mM Tris, 100 mM NaCl, M-Per Pierre Zwitterionic detergent, 5 mM NaF, 1 mM Na3VO4, 40 mM β-glycerophosphate, 6 μg/mL chymotrypsin, 10 μM3,4-dichlorocoumarin, 10 μM E-64, 1 μg/mL leupeptin, 1 μg/mL pepstatin A, 1 μg/mL aprotinin, 1 mM PMSF, and 5 mM EDTA (Sigma). The lenses were then ground using a tissue grinder until they were a uniformly white solution. They were then sonicated to make certain all the cells were disrupted. The mixture was then centrifuged for 20 minutes at 0° C. at […]. The supernatant was then analyzed for protein content using […] (Pierce). Equal amounts of protein were loaded and separated on a 10% SDS polyacrylamide gel. The proteins were transferred to nitrocellulose (Midwest Scientific; pore size 0.45 μm). The western was blocked with a 3% milk solution, and then mouse anti-PKC γ (1:5000) or PKC α (1:1000) antisera (Transgenic Laboratories) were applied in a 3% milk solution overnight. […]
The effects of streptozotocin induced diabetes on PKC-γ levels in rat lens have been measured. […]

[5] = molecular target: T1, Human aldose reductase (AR) (Homo sapiens, UniProt P15121); test: human AR inhibition assay (enzyme assay, NADPH absorption at 340 nm); type: biochemical; settings: Table 3; average of three assays; read-out: IC50, Inhibition of Human Retina Aldose Reductase
T1 construct: made in house; host or cells: E. coli
Experimental: Human aldose reductase (AR) was obtained from overexpression of the human AR gene in an E coli system and was purified by column chromatography using a talon metal affinity column and eluted with a gradient mixture of Tris, NaCl buffer and imidazole solution. The human AR inhibition assay was conducted as follows. In a sample cuvette, 25 mM of D-xylose (75 mg/mL) and 0.15 mM of reduced nicotinamide adenine dinucleotide phosphate (NADPH) (4 mg/mL), and various amount of the inhibitor [in PBS (phosphate buffer saline) solution; the concentration of the inhibitor was determined using UV spectroscopy based on εmax at λmax of the drug] in 700 uL of PBS (a solution made of 1.44 g of Na2HPO4, 0.24 g KH2PO4, 0.2 g KCl, and 8 g NaCl in 1 L of distilled water) buffer (pH=6.1) solution and 200 uL of the AR enzyme (a final volume of 1 mL was obtained). The intensity of absorption of NADPH (λmax=340 nm) was measured. When xylose is reduced to xylitol, NADPH is converted into NADP and the absorption at 340 nm decreases. When AR is inhibited by the drug, the absorption at 340 nm of NADPH remains unchanged. Each assay was repeated three times and an average IC50 value was obtained.

[6] = test system: bovine lens epithelial cells; test: toxicity in bovine lens epithelial cells; type: cell-based; settings: up to 100 uM added to bovine lens epithelial cells
[7] = pathology studies in treated rats; type: in vivo; settings: 100 mg/Kg body weight per day, 9 days
caspase 103 = test: in vitro caspase substrate study (release of p-nitroaniline); type: biochemical
Source text: (§3) ACAT mediates the esterification of intracellular cholesterol and is believed to play a key role in lipoprotein metabolism and atherogenesis (for a review: Suckling, K. E.; Stange, E. F. J. Lipid Res. 1985, 26, 647-671). […] The inhibition of CETP with these three compounds was then studied. CETP, a hydrophobic neutral glycoprotein, mediates the transfer of cholesteryl ester from high-density lipoprotein to low-density lipoprotein (For a review: Tall, A. R. J. Lipid Res. 1993, 34, 1255-1274). […] The N-(p-nitrophenyl)aspartamide portion of 104 was attached in order to study whether 104 was a substrate of […] (For a review: VIIIa, P.; Kaufmann, S. H.; Earnshaw, W. C. Trends Biochem. Sci. 1997, 22, 388-393). […] Compound 105 is cytotoxic to L1210 tumor cells, with IC50=30 μM. Aggarwal et al., J. Chem. Soc., Perkin Trans I (1999) 3315-3321 is incorporated by reference to the extent not inconsistent with the disclosure herewith.

ACAT = test: inhibition of ACAT; type: biochemical
CETP = molecular target: T2, CETP (Homo sapiens, UniProt P11597); test: inhibition of CETP; type: biochemical
T2 sequence (P11597 18-493): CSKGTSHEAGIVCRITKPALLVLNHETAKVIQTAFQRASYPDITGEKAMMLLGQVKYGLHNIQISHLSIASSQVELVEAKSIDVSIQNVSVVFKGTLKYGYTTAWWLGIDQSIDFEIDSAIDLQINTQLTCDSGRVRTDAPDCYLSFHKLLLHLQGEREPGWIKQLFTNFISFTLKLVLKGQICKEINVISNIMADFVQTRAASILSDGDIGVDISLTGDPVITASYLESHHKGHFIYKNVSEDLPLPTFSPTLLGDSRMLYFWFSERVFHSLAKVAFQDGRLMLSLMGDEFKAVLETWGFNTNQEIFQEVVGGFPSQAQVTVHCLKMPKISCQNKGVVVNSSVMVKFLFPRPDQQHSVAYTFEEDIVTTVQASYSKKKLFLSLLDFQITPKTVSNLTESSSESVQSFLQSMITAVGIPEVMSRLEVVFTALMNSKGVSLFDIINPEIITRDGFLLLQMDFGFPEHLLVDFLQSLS
Source text: as §1, §3

[8] = dogs, 40% galactose diet 6 weeks, orally 100 mg/kg body weight/day for 6 weeks
[9] = Galactosemic dogs, with inhibitor

Compound: Cc1cc2c(c(=O)o1)C=C1CC[C@@H](CC(C)n3cnc4c(N)ncnc43)C[C@@H]1O2 (mixture of isomers) [Compound 105, (5aS,7S)-7-[(1R) and (1S)-2-(N-9-Adenyl)-1-methylethyl]-3-methyl-1H,7H-5a,6,8,9-tetrahydro-1-oxopyrano[4,3-b][1]benzopyran]
fold less active than 106 (EC50) (MC65 cells; MC65 cells): 20 fold
EC50 (MC65 cells): 3 µM
IC50 (L1210 tumor cells; read-out: IC50, cytotoxic to L1210 tumor cells): 30 µM

Compound: O=C(O)Cc1cc2c(c(=O)o1)C=C1CCCCC1O2 (centres unmarked) [Compound 1, {1H,7H-5a,6,8,9-Tetrahydro-1-oxopyrano[4,3-b][1]benzopyran-3-yl}acetic acid]
PKC-γ level of dog lens (read-out of intensities, FIG. 5) (PKC-γ [1]; control with inhibitor 1 (C+I)): 79.7%
PKCγ levels normalized (PKC-γ [1]; [8]): 80%
PKC-γ level of dog lens (read-out of intensities, FIG. 5) (PKC-γ [1]; galactose and inhibitor 1 (G+I)): 84.1%
water solubility (water solubility): water soluble
Galactitol (polyol) (GC/MS, dog lens) [2, 9]: 27.3%
Galactose (GC/MS, dog lens) [2, 9]: 72.7%
polyol levels normalized [2, 8]: 50%
% galactitol ([3]; 1 uM compound 1, 40 mM galactose, 48 hours): 80%
% galactitol ([3]; 10 uM compound 1, 40 mM galactose, 48 hours): 30%
concentration of galactitol relative to galactose (GC/MS, FIG. 1B) ([3]; 10 uM, 40 mM galactose, 48 hours): decreases the concentration of galactitol relative to galactose
IC50 ([3]; Epithelial cell): 6 µM
inhibition at 10 µM ([3]; Epithelial cell, 48 hours): 80 ± 10%
PKC-γ levels in sciatic nerve cells (PKC-γ [4]): normalized
IC50 [5]: 0.002 µM
toxicity [6]: no toxicity was found
toxicity to the rats (pathology studies) [7]: not toxic to the rats

water solubility (water solubility): water soluble
IC50 [5]: 0.02 µM
Compound: O=C(O)C(O)Cc1cc2c(c(=O)o1)C(O)C1CCCCC1O2 (centres unmarked) [Compound 2, 2-Hydroxy-3-{1H,7H-5a,6,8,9,10,11-hexahydro-10-hydroxy-1-oxopyrano[4,3-b][1]benzopyran-3-yl}-propanoic acid]
inhibition at 10 µM ([3]; Epithelial cell, 48 hours): < 10%
toxicity [6]: no toxicity was found

substrate of caspase 103 (release of p-nitroaniline) (caspase 103): not a substrate
IC50 (ACAT): 168 µM
IC50 (CETP): > 180 µM
Compound: C=C(C)[C@H]1CCC2=Cc3c(cc(CC(=O)N[C@@H](CC(=O)O)C(=O)Nc4ccc([N+](=O)[O-])cc4)oc3=O)O[C@H]2C1 [Compound 104]
protection of MC65 cells from death (in words) (MC65 cells; MC65 cells conditionally expressing partial APP fusion protein, absence of tetracycline): protected from death
EC50 (MC65 cells): 2 µM

Compound: CC(=O)OCC1(C)C(OC(C)=O)CCC2(C)C1CC(OC(C)=O)C1(C)Oc3cc(-c4cccnc4)oc(=O)c3C(O)C21 (centres unmarked) [Pyripyropene A, reference compound]
IC50 (L1210 tumor cells; Mus musculus, L1210, Table 9, read-out: C50, L1210 Leukemic Cells): > 100 µM
